Source: patent publication USRE48711E1, “Apoptosis signal-regulating kinase inhibitors” (Gilead Sciences, Inc., priority 2009, dated 2021)

biological target: ASK1 (Apoptosis Signal-Regulating Kinase 1) (Homo sapiens (Human), UniProt Q99683); experiment: ASK1 (Apoptosis Signal-Regulating Kinase 1) TR-FRET Kinase Assay (Biochemical IC50); conditions: TR-FRET, biotin-MBP substrate, 20 min pre-incubation, ATP added as 300 μM solution
Sequence (Q99683 649-946): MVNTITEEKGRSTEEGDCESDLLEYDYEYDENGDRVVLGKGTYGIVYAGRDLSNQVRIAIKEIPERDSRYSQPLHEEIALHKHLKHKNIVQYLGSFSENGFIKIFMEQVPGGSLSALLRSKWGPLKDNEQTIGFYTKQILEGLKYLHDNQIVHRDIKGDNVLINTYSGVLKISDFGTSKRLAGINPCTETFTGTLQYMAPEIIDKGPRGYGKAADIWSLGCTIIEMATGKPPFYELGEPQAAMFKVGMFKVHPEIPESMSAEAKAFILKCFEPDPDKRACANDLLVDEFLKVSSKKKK

Point of comparison: `Cn1cnnc1-c1cccc(NC(=O)c2cncc(-c3cccnc3)c2)c1` [Example 8, N-(3-(4-methyl-4H-1,2,4-triazol-3-yl)phenyl)-3,3′-bipyridine-5-carboxamide], IC50 220 nM. Against it:
- O=C(Nc1cccc(-c2nncn2C2CC2)n1)c1cccc(-n2cnc(C3CC3)c2)c1 [Example 192, 3-(4-cyclopropyl-1H-imidazol-1-yl)-N-(6-(4-cyclopropyl-4H-1,2,4-triazol-3-yl)pyridin-2-yl)benzamide] — 31-fold lower, 7 nM
- Cc1cnc(C(=O)Nc2cccc(-c3nncn3C3CC3)n2)cc1-c1ccc(C2CC2)nc1 [Example 215, 6-cyclopropyl-N-(6-(4-cyclopropyl-4H-1,2,4-triazol-3-yl)pyridin-2-yl)-5′-methyl-3,4′-bipyridine-2′-carboxamide] — 7.3-fold lower, 30 nM
- COC[C@H](C)n1cnnc1-c1cccc(NC(=O)c2cc(-c3ccc(C4CC4)nc3)ccn2)n1 [Example 234, (S)-6-cyclopropyl-N-(6-(4-(1-methoxypropan-2-yl)-4H-1,2,4-triazol-3-yl)pyridin-2-yl)-3,4′-bipyridine-2′-carboxamide] — 28-fold lower, 8 nM
- C[C@H](n1cnnc1-c1cccc(NC(=O)c2cc(-c3ccc(C4CC4)nc3)ccn2)n1)C(F)(F)F [Example 179, (S)-6-cyclopropyl-N-(6-(4-(1,1,1-trifluoropropan-2-yl)-4H-1,2,4-triazol-3-yl)pyridin-2-yl)-3,4′-bipyridine-2′-carboxamide] — 12-fold lower, 19 nM
- Cc1cn(-c2ccnc(C(=O)Nc3cccc(-c4nncn4C4CC4)n3)c2)cn1 [Example 159, N-(6-(4-cyclopropyl-4H-1,2,4-triazol-3-yl)pyridin-2-yl)-4-(4-methyl-1H-imidazol-1-yl)picolinamide] — 73-fold lower, 3 nM
- O=C(Nc1cccc(-c2nncn2C2CC2)c1)c1cc(-c2ccc(OC3CCC3)nc2)ccn1 [Example 95, 6-cyclobutoxy-N-(3-(4-cyclopropyl-4H-1,2,4-triazol-3-yl)phenyl)-3,4′-bipyridine-2′-carboxamide] — 7.1-fold lower, 31 nM
- Cc1noc(-c2ccnc(C(=O)Nc3cccc(-c4nncn4C4CC4)c3)c2)n1 [Example 253, N-(3-(4-cyclopropyl-4H-1,2,4-triazol-3-yl)phenyl)-4-(3-methyl-1,2,4-oxadiazol-5-yl)picolinamide] — 16-fold higher, 3490 nM
- CC(C)(O)c1ccc(-c2cccc(C(=O)Nc3cccc(-c4nncn4C4CC4)n3)c2)cn1 [Example 204, N-(6-(4-cyclopropyl-4H-1,2,4-triazol-3-yl)pyridin-2-yl)-3-(6-(2-hydroxypropan-2-yl)pyridin-3-yl)benzamide] — 13-fold lower, 17 nM
- Cn1cncc1-c1ccnc(C(=O)Nc2cccc(-c3nncn3C)c2)c1 [Example 18, 4-(1-methyl-1H-imidazol-5-yl)-N-(3-(4-methyl-4H-1,2,4-triazol-3-yl)phenyl)picolinamide] — 5.6-fold lower, 39 nM
- Cc1cccc(C)c1OC[C@H](C)n1cnnc1-c1cccc(NC(=O)c2cc(-c3ccc(C4CC4)nc3)ccn2)c1 [Example 239, (S)-6-cyclopropyl-N-(3-(4-(1-(2,6-dimethylphenoxy)propan-2-yl)-4H-1,2,4-triazol-3-yl)phenyl)-3,4′-bipyridine-2′-carboxamide] — 50-fold higher, 10900 nM
- O=C(Nc1cccc(-c2nncn2C2CC2)c1)c1cc(-n2cnc3c2CCNC3C(F)(F)F)ccn1 (centres unmarked) [Example 194, N-(3-(4-cyclopropyl-4H-1,2,4-triazol-3-yl)phenyl)-4-(4-(trifluoromethyl)-4,5,6,7-tetrahydro-1H-imidazo[4,5-c]pyridin-1-yl)picolinamide] — 18-fold lower, 12 nM
- CC(CN1CCCC1)n1cnnc1-c1cccc(NC(=O)c2cc(-c3ccc(C4CC4)nc3)ccn2)n1 (centres unmarked) [Example 245, 6-cyclopropyl-N-(6-(4-(1-(pyrrolidin-1-yl)propan-2-yl)-4H-1,2,4-triazol-3-yl)pyridin-2-yl)-3,4′-bipyridine-2′-carboxamide] — 6.1-fold lower, 36 nM
- COc1cncc(-c2ccnc(C(=O)Nc3cccc(-c4nncn4C4CC4)c3)c2)c1 [Example 71, N-(3-(4-cyclopropyl-4H-1,2,4-triazol-3-yl)phenyl)-5-methoxy-3,4′-bipyridine-2′-carboxamide] — 13-fold lower, 17 nM
- O=C(Nc1cccc(-c2nncn2C2CC2)c1)c1cc(-c2ccc(O)nc2)ccn1 [Example 31, N-(3-(4-cyclopropyl-4H-1,2,4-triazol-3-yl)phenyl)-6-hydroxy-3,4′-bipyridine-2′-carboxamide] — 3.5-fold lower, 63 nM
- Nc1ncccc1-c1ccnc(C(=O)Nc2cccc(-c3nncn3C3CC3)c2)c1 [Example 66, 2-amino-N-(3-(4-cyclopropyl-4H-1,2,4-triazol-3-yl)phenyl)-3,4′-bipyridine-2′-carboxamide] — 2.6-fold lower, 86 nM
- Cc1ccncc1-c1ccnc(C(=O)Nc2cccc(-c3nncn3C3CC3)c2)c1 [Example 57, N-(3-(4-cyclopropyl-4H-1,2,4-triazol-3-yl)phenyl)-4-methyl-3,4′-bipyridine-2′-carboxamide] — within 1.5-fold, 244 nM
- CC(C)CSc1ccc(-c2ccnc(C(=O)Nc3cccc(-c4nncn4C4CC4)c3)c2)cn1 [Example 132, N-(3-(4-cyclopropyl-4H-1,2,4-triazol-3-yl)phenyl)-6-(isobutylthio)-3,4′-bipyridine-2′-carboxamide] — within 1.5-fold, 150 nM
- O=C(Nc1cccc(-c2nncn2C2CC2)c1)c1cc(-c2ccc(S(=O)(=O)NC3CC3)cc2)ccn1 [Example 96, N-(3-(4-cyclopropyl-4H-1,2,4-triazol-3-yl)phenyl)-4-(4-(N-cyclopropylsulfamoyl)phenyl)picolinamide] — 17-fold lower, 13 nM
- O=C(Nc1cccc(-c2nncn2C2CC2)n1)c1cccc(-c2cccnc2)c1 [Example 130, N-(6-(4-cyclopropyl-4H-1,2,4-triazol-3-yl)pyridin-2-yl)-3-(pyridin-3-yl)benzamide] — 18-fold lower, 12 nM
- O=C(Nc1cccc(-c2nncn2C2CC2)c1)c1cc(-c2nc(C3CC3)no2)ccn1 [Example 254, 4-(3-cyclopropyl-1,2,4-oxadiazol-5-yl)-N-(3-(4-cyclopropyl-4H-1,2,4-triazol-3-yl)phenyl)picolinamide] — 5.8-fold higher, 1270 nM
- Cc1c(-c2ccnc(C(=O)Nc3cccc(-c4nncn4C4CC4)c3)c2)cnn1C [Example 90, N-(3-(4-cyclopropyl-4H-1,2,4-triazol-3-yl)phenyl)-4-(1,5-dimethyl-1H-pyrazol-4-yl)picolinamide] — 5.8-fold lower, 38 nM
- C[C@H]1C[C@@H]1n1cnnc1-c1cccc(NC(=O)c2cc(-c3cccnc3)ccn2)c1 [Example 55, N-(3-(4-((1S,2S)-2-methylcyclopropyl)-4H-1,2,4-triazol-3-yl)phenyl)-3,4′-bipyridine-2′-carboxamide] — 9.2-fold lower, 24 nM
- C[C@@H](CO)n1cnnc1-c1cccc(NC(=O)c2cc(-c3cccnc3)ccn2)c1 [Example 20, (S)-N-(3-(4-(1-hydroxypropan-2-yl)-4H-1,2,4-triazol-3-yl)phenyl)-3,4′-bipyridine-2′-carboxamide] — 5.6-fold lower, 39 nM
- CC(C)(O)c1ccc(-c2ccnc(C(=O)Nc3cccc(-c4nncn4C4CC4)n3)c2)cn1 [Example 166, N-(6-(4-cyclopropyl-4H-1,2,4-triazol-3-yl)pyridin-2-yl)-6-(2-hydroxypropan-2-yl)-3,4′-bipyridine-2′-carboxamide] — 44-fold lower, 5 nM
- O=C(Nc1cccc(-c2nncn2C2CC2)n1)c1cc(-c2cccnc2)ccn1 [Example 54, N-(6-(4-cyclopropyl-4H-1,2,4-triazol-3-yl)pyridin-2-yl)-3,4′-bipyridine-2′-carboxamide] — 44-fold lower, 5 nM
- O=C(Nc1cccc(-c2nncn2C2CC2)n1)c1cc(-c2ccc(C3CC3)nc2)c(Cl)cc1F [Example 265, 4-chloro-N-(6-(4-cyclopropyl-4H-1,2,4-triazol-3-yl)pyridin-2-yl)-5-(6-cyclopropylpyridin-3-yl)-2-fluorobenzamide] — 8.1-fold lower, 27 nM
- O=C(Nc1cccc(-c2nncn2C2CC2)c1)c1cc(-n2cnc(C(O)C(F)(F)F)c2)ccn1 (centres unmarked) [Example 206, N-(3-(4-cyclopropyl-4H-1,2,4-triazol-3-yl)phenyl)-4-(4-(2,2,2-trifluoro-1-hydroxyethyl)-1H-imidazol-1-yl)picolinamide] — 24-fold lower, 9 nM
- CC(C)(C)NC(=O)c1cncc(-c2ccnc(C(=O)Nc3cccc(-c4nncn4C4CC4)c3)c2)c1 [Example 75, N5-tert-butyl-N2′-(3-(4-cyclopropyl-4H-1,2,4-triazol-3-yl)phenyl)-3,4′-bipyridirie-2′,5-dicarboxamide] — 22-fold lower, 10 nM
- C[C@@H](O)[C@H](C)n1cnnc1-c1cccc(NC(=O)c2cc(-c3ccc(C4CC4)nc3)ccn2)n1 [Example 247, 6-cyclopropyl-N-(6-(4-((2S,3R)-3-hydroxybutan-2-yl)-4H-1,2,4-triazol-3-yl)pyridin-2-yl)-3,4′-bipyridine-2′-carboxamide] — 22-fold lower, 10 nM
- Cn1cnnc1-c1cccc(NC(=O)c2cc(N3CCC(N)C3)ccn2)c1 (centres unmarked) [Example 33, 4-(3-aminopyrrolidin-1-yl)-N-(3-(4-methyl-4H-1,2,4-triazol-3-yl)phenyl)picolinamide] — 16-fold higher, 3480 nM
- CC(O)[C@@H](C)n1cnnc1-c1cccc(NC(=O)c2cc(-c3ccc(C4CC4)nc3)ccn2)n1 (stereo partly drawn) [Example 248, 6-cyclopropyl-N-(6-(4-((2R)-3-hydroxybutan-2-yl)-4H-1,2,4-triazol-3-yl)pyridin-2-yl)-3,4′-bipyridine-2′-carboxamide] — 31-fold lower, 7 nM
- O=C(Nc1cccc(-c2nncn2C2CC2)c1)c1cc(-n2ccnc2)ccn1 [Example 27, N-(3-(4-cyclopropyl-4H-1,2,4-triazol-3-yl)phenyl)-4-(1H-imidazol-1-yl)picolinamide] — 20-fold lower, 11 nM
- C[C@H](n1cnnc1-c1cccc(NC(=O)c2cc(-c3cccnc3)ccn2)c1)C(F)(F)F [Example 63, (S)-N-(3-(4-(1,1,1-trifluoropropan-2-yl)-4H-1,2,4-triazol-3-yl)phenyl)-3,4′-bipyridine-2′-carboxamide] — 10-fold lower, 21 nM
- Cc1nc(C2CC2)cn1-c1ccnc(C(=O)Nc2cccc(-c3nncn3C3CC3)c2)c1 [Example 182, 4-(4-cyclopropyl-2-methyl-1H-imidazol-1-yl)-N-(3-(4-cyclopropyl-4H-1,2,4-triazol-3-yl)phenyl)picolinamide] — 15-fold lower, 15 nM
